Data: BindingDB's records for doi:10.1021/jm034206x (Boehringer Ingelheim (Canada), 2003)

biological target: T1, Replication protein E1 (Human papillomavirus 11, UniProt P04014); test: ChEBML_84985
T1 sequence (P04014 whole entry): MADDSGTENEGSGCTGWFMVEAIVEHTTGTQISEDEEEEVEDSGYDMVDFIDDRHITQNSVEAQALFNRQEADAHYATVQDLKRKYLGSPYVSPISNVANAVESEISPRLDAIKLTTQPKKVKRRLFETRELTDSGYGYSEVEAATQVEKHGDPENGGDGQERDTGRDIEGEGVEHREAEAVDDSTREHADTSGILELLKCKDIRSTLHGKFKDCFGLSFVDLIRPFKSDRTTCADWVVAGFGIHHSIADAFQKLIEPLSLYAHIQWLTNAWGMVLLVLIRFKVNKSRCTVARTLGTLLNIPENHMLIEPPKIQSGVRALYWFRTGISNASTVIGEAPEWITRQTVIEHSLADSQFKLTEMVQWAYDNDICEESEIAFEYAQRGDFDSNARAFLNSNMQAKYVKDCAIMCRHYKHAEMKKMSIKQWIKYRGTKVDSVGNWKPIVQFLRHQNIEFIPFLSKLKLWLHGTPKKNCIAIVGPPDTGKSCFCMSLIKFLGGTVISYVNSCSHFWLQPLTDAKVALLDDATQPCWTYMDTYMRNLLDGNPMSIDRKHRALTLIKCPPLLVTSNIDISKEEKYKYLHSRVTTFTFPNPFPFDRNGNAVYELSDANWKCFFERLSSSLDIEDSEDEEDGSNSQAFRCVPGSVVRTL
Source text: Ability to inhibit in vitro ATPase activity of human papillomavirus (HPV6) E1 helicase

Row | IC50 [nM] | SMILES
1 | 4.3 | O=C(O)CS(=O)(=O)c1ccc(-c2cccc(C(=O)NCc3cccc4ccccc34)c2)cc1 [{3'-[(Naphthalen-1-ylmethyl)-carbamoyl]-biphenyl-4-sulfonyl}-acetic acid]

biological target: Replication protein E1 (Human papillomavirus type 6); test: Ability to inhibit in vitro ATPase activity of human papillomavirus (HPV6) E1 helicase

Row | IC50 [nM] | SMILES
2 | 6500 | O=C(O)C(F)S(=O)(=O)c1ccc(-c2ccccc2)cc1 (centres undefined) [(Biphenyl-4-sulfonyl)-fluoro-acetic acid]
3 | 17000 | CC(C(=O)O)S(=O)(=O)c1ccc(-c2ccccc2)cc1 (centres undefined) [2-(Biphenyl-4-sulfonyl)-propionic acid]
4 | 420 | O=C(O)CS(=O)(=O)c1ccc(-c2cccc(C(=O)Nc3ccccc3)c2)cc1 [(3'-Phenylcarbamoyl-biphenyl-4-sulfonyl)-acetic acid]
5 | 20 | O=C(O)CS(=O)(=O)c1ccc(-c2cccc(CC(=O)N[C@H]3CCc4ccccc43)c2)cc1 [[3'-((S)-Indan-1-ylcarbamoylmethyl)-biphenyl-4-sulfonyl]-acetic acid]
6 | > 80000 | CS(=O)(=O)c1ccc(-c2cccc(C(=O)NCc3cccc4ccccc34)c2)cc1 [4'-Methanesulfonyl-biphenyl-3-carboxylic acid (naphthalen-1-ylmethyl)-amide]
7 | 1900 | CC(=O)NCCNC(=O)Cc1ccc(-c2ccc(S(=O)(=O)CC(=O)O)cc2)cc1 [{4'-[(2-Acetylamino-ethylcarbamoyl)-methyl]-biphenyl-4-sulfonyl}-acetic acid]
8 | 27 | Cc1cccc(CNC(=O)c2cccc(-c3ccc(S(=O)(=O)CC(=O)O)cc3)c2)c1 [[3'-(3-methyl-benzylcarbamoyl)-biphenyl-4-sulfonyl]-acetic acid]
9 | 1100 | O=C(O)CS(=O)(=O)c1ccc(-c2ccc(C(=O)N(Cc3ccccc3)Cc3ccccc3)cc2)cc1 [(4'-Dibenzylcarbamoyl-biphenyl-4-sulfonyl)-acetic acid]
10 | 5400 | O=C(O)CS(=O)(=O)c1ccc(-c2cccc3ccccc23)cc1 [(4-Naphthalen-1-yl-benzenesulfonyl)-acetic acid]
11 | 30000 | Cc1nc(-c2ccc(S(=O)(=O)CC(=O)O)cc2)cs1 [[4-(2-Methyl-thiazol-4-yl)-benzenesulfonyl]-acetic acid]
12 | 110 | O=C(O)CS(=O)(=O)c1ccc(-c2cccc(CC(=O)Nc3ccccc3)c2)cc1 [{3'-[(phenylcarbamoyl)-methyl]-biphenyl-4-sulfonyl}-acetic acid]
13 | > 80000 | O=C(O)CS(=O)(=O)c1cccc(COc2ccccc2)c1 [(3-Phenoxymethyl-benzenesulfonyl)-acetic acid]
14 | > 80000 | CC(C)(C(=O)O)S(=O)(=O)c1ccc(-c2ccccc2)cc1 [2-(Biphenyl-4-sulfonyl)-2-methyl-propionic acid]
15 | > 80000 | O=C(O)CS(=O)(=O)c1ccc(Sc2ccccc2)cc1 [(4-Phenylsulfanyl-benzenesulfonyl)-acetic acid]
16 | 1300 | O=C(O)CS(=O)(=O)c1ccc(-c2ccc3c(c2)OCO3)cc1 [(4-Benzo[1,3]dioxol-5-yl-benzenesulfonyl)-acetic acid]

Further lines, the molecule ahead of its results:

Row | SMILES | IC50 [nM]
17 | O=C(O)CS(=O)(=O)c1ccc(-c2ccc(C(=O)NCc3ccccc3)cc2)cc1 [(4'-Benzylcarbamoyl-biphenyl-4-sulfonyl)-acetic acid] | 510
18 | O=C(O)CS(=O)(=O)c1cccc(-c2ccccc2)c1 [(Biphenyl-3-sulfonyl)-acetic acid] | > 80000
19 | O=C(O)CSc1ccc(-c2ccccc2)cc1 [(Biphenyl-4-sulfanyl)-acetic acid] | > 80000
20 | CN(C(=O)c1ccc(-c2ccc(S(=O)(=O)CC(=O)O)cc2)cc1)c1ccccc1 [[4'-(Methyl-phenyl-carbamoyl)-biphenyl-4-sulfonyl]-acetic acid] | 4800
21 | O=C(O)CS(=O)(=O)c1ccc(-c2cccc(CC(=O)NCc3ccccc3)c2)cc1 [[3'-(Benzylcarbamoyl-methyl)-biphenyl-4-sulfonyl]-acetic acid] | 300
22 | C[C@H](NC(=O)c1cccc(-c2ccc(S(=O)(=O)CC(=O)O)cc2)c1)c1ccccc1 [[3'-(1-(S)-phenyl-ethylcarbamoyl)-biphenyl-4-sulfonyl]-acetic acid] | 1700
23 | O=C(NCc1cccc2ccccc12)c1cccc(-c2ccc(C(=O)C(F)(F)P(=O)(O)O)cc2)c1 [(1,1-Difluoro-2-{3'-[(naphthalen-1-ylmethyl)-carbamoyl]-biphenyl-4-yl}-2-oxo-ethyl)-phosphonic acid] | 740
24 | NC(=O)CS(=O)(=O)c1ccc(-c2ccccc2)cc1 [2-(Biphenyl-4-sulfonyl)-acetamide] | > 80000
25 | O=C(O)CS(=O)(=O)c1ccc(-c2cccc(C(=O)N3CCOCC3)c2)cc1 [[3'-(Morpholine-4-carbonyl)-biphenyl-4-sulfonyl]-acetic acid] | 22000
26 | Cc1ccccc1CNC(=O)c1cccc(-c2ccc(S(=O)(=O)CC(=O)O)cc2)c1 [[3'-(2-methyl-benzylcarbamoyl)-biphenyl-4-sulfonyl]-acetic acid] | 32
27 | O=C(O)CS(=O)(=O)c1ccc(-c2ccc(C(=O)N3CCCCC3)cc2)cc1 [[4'-(Piperidine-1-carbonyl)-biphenyl-4-sulfonyl]-acetic acid] | 3300
28 | C[C@@H](NC(=O)c1cccc(-c2ccc(S(=O)(=O)CC(=O)O)cc2)c1)c1ccccc1 [[3'-((R)-1-Phenyl-ethylcarbamoyl)-biphenyl-4-sulfonyl]-acetic acid] | 43
29 | O=C(O)CS(=O)(=O)c1ccc(-c2ccc(C(=O)Nc3ccccc3)cc2)cc1 [(4'-Phenylcarbamoyl-biphenyl-4-sulfonyl)-acetic acid] | 1300
30 | O=C(O)CS(=O)(=O)c1ccc2ccccc2c1 [(Naphthalene-2-sulfonyl)-acetic acid] | 40000
31 | COc1ccc(-c2ccc(S(=O)(=O)CC(=O)O)cc2)cc1 [(4'-Methoxy-biphenyl-4-sulfonyl)-acetic acid] | 1300
32 | Cc1cccc(CNC(=O)c2cccc(-c3ccc(S(=O)(=O)CC(=O)O)cc3)c2)c1C [[3'-(2,3-dimethyl-benzylcarbamoyl)-biphenyl-4-sulfonyl]-acetic acid] | 9.2
33 | COc1cccc(-c2ccc(S(=O)(=O)CC(=O)O)cc2)c1 [(3'-Methoxy-biphenyl-4-sulfonyl)-acetic acid] | 4000
34 | CS(=O)(=O)c1ccc(-c2ccccc2)cc1 [4-Methanesulfonyl-biphenyl] | > 80000
35 | O=C(O)CS(=O)(=O)c1ccc(-c2ccc(CC(=O)NCc3ccccc3)cc2)cc1 [(4'-Benzylcarbamoylmethyl-biphenyl-4-sulfonyl)-acetic acid] | 340
36 | O=C(O)CS(=O)(=O)c1ccc(-c2nccs2)cc1 [(4-Thiazol-2-yl-benzenesulfonyl)-acetic acid] | 20000
37 | O=C(O)CS(=O)(=O)c1ccc(-c2ccc(CC(=O)Nc3ccccc3)cc2)cc1 [(4'-Phenylcarbamoylmethyl-biphenyl-4-sulfonyl)-acetic acid] | 160
38 | O=S(=O)(O)CS(=O)(=O)c1ccc(-c2ccccc2)cc1 [(Biphenyl-4-sulfonyl)-methanesulfonic acid] | 32000
39 | O=C(O)CS(=O)(=O)c1ccc(NCCc2ccccc2)cc1 [(4-Phenethylamino-benzenesulfonyl)-acetic acid] | 67000
